# Laboratory results taken from PMC8371461 (Frontiers in Pharmacology, 2021).
# Read-outs that look alike come from different tables or passages of the source.
# Experiments:
# AKT = AKT phosphorylation at the protein level in PSC; format: cell-based, mouse; settings: 10 µM, 10 min, 1 and 3 h after exposure
# [1] = biological target: T1, ABL1(M351T)-phosphorylated (Homo sapiens, UniProt P00519, M351T); assay: kinome scan; format: binding; settings: 10 µM
# T1 construct: purchased DiscoverX (KINOMEscan)
# BRAF = biological target: T2, BRAF (Homo sapiens, UniProt P15056); assay: kinome scan; format: binding; settings: 10 µM
# T2 construct: purchased DiscoverX (KINOMEscan)
# BRSK1 = biological target: T3, BRSK1 (Homo sapiens, UniProt Q8TDC3); assay: kinome scan; format: binding; settings: 10 µM
# T3 construct: purchased DiscoverX (KINOMEscan)
# CAMK2B = biological target: T4, CAMK2B (Homo sapiens, UniProt Q13554); assay: kinome scan; format: binding; settings: 10 µM
# T4 construct: purchased DiscoverX (KINOMEscan)
# T4 sequence (Q13554 whole entry): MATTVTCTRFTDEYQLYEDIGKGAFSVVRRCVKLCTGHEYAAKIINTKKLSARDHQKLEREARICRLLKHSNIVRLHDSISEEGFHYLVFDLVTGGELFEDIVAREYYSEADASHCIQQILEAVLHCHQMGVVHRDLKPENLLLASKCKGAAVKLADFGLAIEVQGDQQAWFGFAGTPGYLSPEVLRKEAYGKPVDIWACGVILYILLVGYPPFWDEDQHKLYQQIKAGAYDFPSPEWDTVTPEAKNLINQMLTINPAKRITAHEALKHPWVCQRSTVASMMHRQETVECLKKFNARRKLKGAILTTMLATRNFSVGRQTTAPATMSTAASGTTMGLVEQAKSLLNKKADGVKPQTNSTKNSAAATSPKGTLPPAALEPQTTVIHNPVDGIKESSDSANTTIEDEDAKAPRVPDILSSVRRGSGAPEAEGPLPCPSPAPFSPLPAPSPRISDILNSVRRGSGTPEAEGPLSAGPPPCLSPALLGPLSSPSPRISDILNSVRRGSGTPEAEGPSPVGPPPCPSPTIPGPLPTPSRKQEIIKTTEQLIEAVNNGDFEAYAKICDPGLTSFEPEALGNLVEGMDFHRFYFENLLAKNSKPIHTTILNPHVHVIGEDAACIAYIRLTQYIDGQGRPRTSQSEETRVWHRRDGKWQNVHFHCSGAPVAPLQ
# CAMK2D = biological target: T5, CAMK2D (Homo sapiens, UniProt Q13557); assay: kinome scan; format: binding; settings: 10 µM
# T5 construct: purchased DiscoverX (KINOMEscan)
# CDKL2 = biological target: T6, CDKL2 (Homo sapiens, UniProt Q92772); assay: kinome scan; format: binding; settings: 10 µM
# T6 construct: purchased DiscoverX (KINOMEscan)
# DCAMKL1 = biological target: T7, DCAMKL1 (Homo sapiens, UniProt O15075); assay: kinome scan; format: binding; settings: 10 µM
# T7 construct: purchased DiscoverX (KINOMEscan)
# DDR1 = biological target: T8, DDR1 (Homo sapiens, UniProt Q08345); assay: kinome scan; format: binding; settings: 10 µM
# T8 construct: purchased DiscoverX (KINOMEscan)
# T8 sequence (Q08345 19-913): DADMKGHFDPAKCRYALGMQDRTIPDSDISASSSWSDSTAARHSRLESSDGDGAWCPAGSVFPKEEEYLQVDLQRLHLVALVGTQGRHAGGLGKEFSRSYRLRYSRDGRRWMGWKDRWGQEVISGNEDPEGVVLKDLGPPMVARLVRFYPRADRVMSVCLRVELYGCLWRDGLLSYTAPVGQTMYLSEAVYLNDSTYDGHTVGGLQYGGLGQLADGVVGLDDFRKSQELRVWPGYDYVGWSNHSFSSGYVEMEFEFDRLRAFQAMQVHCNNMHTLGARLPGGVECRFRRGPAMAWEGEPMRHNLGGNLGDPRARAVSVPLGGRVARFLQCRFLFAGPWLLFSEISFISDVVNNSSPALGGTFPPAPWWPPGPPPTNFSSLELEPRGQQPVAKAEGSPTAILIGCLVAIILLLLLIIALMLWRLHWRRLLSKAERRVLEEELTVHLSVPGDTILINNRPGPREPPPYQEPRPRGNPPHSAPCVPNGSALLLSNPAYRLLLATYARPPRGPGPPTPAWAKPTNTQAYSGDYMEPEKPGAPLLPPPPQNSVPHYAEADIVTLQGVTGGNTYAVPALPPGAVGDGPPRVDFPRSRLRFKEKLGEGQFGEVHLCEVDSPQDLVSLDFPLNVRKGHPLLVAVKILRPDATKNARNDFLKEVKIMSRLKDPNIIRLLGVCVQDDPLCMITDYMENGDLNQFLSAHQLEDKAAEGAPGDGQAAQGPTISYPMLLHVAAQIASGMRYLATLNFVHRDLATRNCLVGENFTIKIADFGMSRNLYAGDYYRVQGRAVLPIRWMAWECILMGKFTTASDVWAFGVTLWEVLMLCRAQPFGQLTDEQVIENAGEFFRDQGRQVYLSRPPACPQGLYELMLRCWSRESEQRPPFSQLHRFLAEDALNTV
# DYRK2 = biological target: T9, DYRK2 (Homo sapiens, UniProt Q92630); assay: kinome scan; format: binding
# T9 construct: purchased DiscoverX (KINOMEscan)
# T9 sequence (Q92630 1-601): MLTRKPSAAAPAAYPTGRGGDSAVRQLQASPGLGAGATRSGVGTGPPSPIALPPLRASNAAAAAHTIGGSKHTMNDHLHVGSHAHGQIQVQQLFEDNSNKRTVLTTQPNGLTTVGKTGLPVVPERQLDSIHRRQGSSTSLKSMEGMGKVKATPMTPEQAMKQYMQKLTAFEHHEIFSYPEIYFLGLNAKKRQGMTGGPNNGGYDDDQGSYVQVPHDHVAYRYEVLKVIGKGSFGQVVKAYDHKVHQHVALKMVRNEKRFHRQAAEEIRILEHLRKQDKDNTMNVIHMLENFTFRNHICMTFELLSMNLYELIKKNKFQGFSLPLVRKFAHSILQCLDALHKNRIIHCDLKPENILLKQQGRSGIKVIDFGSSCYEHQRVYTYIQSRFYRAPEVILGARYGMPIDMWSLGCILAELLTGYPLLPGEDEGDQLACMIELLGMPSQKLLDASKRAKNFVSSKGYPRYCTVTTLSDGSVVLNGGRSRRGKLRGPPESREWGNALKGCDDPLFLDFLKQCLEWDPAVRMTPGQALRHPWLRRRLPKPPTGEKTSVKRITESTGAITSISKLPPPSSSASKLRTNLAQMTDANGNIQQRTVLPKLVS
# EPHB1 = biological target: T10, EPHB1 (Homo sapiens, UniProt P54762); assay: kinome scan; format: binding; settings: 10 µM
# T10 construct: purchased DiscoverX (KINOMEscan)
# T10 sequence (P54762 18-984): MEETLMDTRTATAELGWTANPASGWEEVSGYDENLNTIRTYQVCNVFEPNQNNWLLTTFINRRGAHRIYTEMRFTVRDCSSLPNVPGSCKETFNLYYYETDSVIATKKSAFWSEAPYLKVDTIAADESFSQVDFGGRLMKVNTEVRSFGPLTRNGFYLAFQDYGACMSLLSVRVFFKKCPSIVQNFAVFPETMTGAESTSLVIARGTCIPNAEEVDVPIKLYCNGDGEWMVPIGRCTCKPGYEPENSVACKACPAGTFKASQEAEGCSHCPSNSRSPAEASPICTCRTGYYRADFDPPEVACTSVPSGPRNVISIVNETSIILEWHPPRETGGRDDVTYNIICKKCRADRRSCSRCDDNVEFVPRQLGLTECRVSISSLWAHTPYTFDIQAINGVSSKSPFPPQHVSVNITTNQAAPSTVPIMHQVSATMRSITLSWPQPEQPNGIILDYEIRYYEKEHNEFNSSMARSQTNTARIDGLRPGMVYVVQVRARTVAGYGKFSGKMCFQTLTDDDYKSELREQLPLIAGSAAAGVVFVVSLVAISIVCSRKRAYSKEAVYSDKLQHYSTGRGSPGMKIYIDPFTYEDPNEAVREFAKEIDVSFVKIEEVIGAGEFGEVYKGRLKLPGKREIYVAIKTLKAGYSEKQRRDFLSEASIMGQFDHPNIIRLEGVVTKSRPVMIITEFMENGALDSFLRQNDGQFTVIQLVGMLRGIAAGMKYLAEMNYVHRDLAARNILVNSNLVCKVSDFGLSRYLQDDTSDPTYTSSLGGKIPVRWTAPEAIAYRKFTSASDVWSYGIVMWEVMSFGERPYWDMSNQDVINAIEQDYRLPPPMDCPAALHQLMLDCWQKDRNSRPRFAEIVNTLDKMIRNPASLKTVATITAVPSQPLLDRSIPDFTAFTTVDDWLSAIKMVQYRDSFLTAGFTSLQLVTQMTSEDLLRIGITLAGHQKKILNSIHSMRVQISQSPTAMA
# ERK5 = biological target: T11, ERK5 (Homo sapiens, UniProt Q13164); assay: kinome scan; format: binding; settings: 10 µM
# T11 construct: purchased DiscoverX (KINOMEscan)
# IRAK4 = biological target: T12, IRAK4 (Homo sapiens, UniProt Q9NWZ3); assay: kinome scan; format: binding; settings: 10 µM
# T12 construct: purchased DiscoverX (KINOMEscan)
# MAPKAPK2 = biological target: T13, MAPKAPK2 (Homo sapiens, UniProt P49137); assay: kinome scan; format: binding; settings: 10 µM
# T13 construct: purchased DiscoverX (KINOMEscan)
# MARK1 = biological target: T14, MARK1 (Homo sapiens, UniProt Q9P0L2); assay: kinome scan; format: binding; settings: 10 µM
# T14 construct: purchased DiscoverX (KINOMEscan)
# NEK1 = biological target: T15, NEK1 (Homo sapiens, UniProt Q96PY6); assay: kinome scan; format: binding; settings: 10 µM
# T15 construct: purchased DiscoverX (KINOMEscan)
# T15 sequence (Q96PY6 whole entry): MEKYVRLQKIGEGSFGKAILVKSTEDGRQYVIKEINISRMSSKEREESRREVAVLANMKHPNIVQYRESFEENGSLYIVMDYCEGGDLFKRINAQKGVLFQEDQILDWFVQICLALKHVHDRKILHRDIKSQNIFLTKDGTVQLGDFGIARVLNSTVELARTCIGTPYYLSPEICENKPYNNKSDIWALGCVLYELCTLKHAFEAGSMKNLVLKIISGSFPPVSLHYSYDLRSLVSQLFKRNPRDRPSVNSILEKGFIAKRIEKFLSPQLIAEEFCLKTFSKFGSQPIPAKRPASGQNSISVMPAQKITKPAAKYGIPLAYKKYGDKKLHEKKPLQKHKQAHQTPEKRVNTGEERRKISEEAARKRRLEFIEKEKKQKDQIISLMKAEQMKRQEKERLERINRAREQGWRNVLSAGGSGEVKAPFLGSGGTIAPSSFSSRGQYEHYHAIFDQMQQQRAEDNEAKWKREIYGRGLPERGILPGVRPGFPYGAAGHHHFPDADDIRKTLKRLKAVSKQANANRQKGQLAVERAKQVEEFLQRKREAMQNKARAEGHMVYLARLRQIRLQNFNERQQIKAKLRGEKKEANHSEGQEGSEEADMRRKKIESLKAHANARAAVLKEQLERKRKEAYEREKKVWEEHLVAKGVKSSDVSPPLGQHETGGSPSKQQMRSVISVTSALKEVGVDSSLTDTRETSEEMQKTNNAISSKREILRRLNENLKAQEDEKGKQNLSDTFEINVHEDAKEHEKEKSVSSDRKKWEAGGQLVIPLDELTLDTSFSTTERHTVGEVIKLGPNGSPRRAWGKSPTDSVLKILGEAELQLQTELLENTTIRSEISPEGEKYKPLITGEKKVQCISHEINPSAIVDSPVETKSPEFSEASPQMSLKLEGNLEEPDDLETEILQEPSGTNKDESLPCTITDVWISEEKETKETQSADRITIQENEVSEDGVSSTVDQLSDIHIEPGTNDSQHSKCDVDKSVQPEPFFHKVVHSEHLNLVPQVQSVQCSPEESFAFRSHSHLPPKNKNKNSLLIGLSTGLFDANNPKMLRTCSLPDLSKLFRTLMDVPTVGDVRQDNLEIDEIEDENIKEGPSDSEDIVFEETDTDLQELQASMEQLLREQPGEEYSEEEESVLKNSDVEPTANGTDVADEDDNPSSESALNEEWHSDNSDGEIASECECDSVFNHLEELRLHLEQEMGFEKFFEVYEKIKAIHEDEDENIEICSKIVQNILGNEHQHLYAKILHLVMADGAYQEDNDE
# PIM1 = biological target: T16, PIM1 (Homo sapiens, UniProt P11309); assay: kinome scan; format: binding
# T16 construct: purchased DiscoverX (KINOMEscan)
# T16 sequence (P11309 whole entry): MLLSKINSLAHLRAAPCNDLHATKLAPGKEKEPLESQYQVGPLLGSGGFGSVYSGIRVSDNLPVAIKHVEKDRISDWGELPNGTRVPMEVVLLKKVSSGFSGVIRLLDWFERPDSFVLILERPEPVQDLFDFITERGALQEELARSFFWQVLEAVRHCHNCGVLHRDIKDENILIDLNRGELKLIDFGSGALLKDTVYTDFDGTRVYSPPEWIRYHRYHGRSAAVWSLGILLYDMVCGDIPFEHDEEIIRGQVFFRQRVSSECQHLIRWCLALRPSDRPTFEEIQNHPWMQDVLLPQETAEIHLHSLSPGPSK
# PRKCD = biological target: T17, PRKCD (Homo sapiens, UniProt Q05655); assay: kinome scan; format: binding; settings: 10 µM
# T17 construct: purchased DiscoverX (KINOMEscan)
# PRKR = biological target: T18, PRKR (Homo sapiens, UniProt P19525); assay: kinome scan; format: binding; settings: 10 µM
# T18 construct: purchased DiscoverX (KINOMEscan)
# SIK2 = biological target: T19, SIK2 (Homo sapiens, UniProt Q9H0K1); assay: kinome scan; format: binding; settings: 10 µM
# T19 construct: purchased DiscoverX (KINOMEscan)
# TAOK2 = biological target: T20, TAOK2 (Homo sapiens, UniProt Q9UL54); assay: kinome scan; format: binding; settings: 10 µM
# T20 construct: purchased DiscoverX (KINOMEscan)
# [2] = biological target: T21, TYK2(JH1domain-catalytic) (Homo sapiens, UniProt P29597); assay: kinome scan; format: binding; settings: 10 µM
# T21 construct: TYK2(JH1domain-catalytic); purchased DiscoverX (KINOMEscan)
# YANK1 = biological target: T22, YANK1 (Homo sapiens, UniProt Q8WU08); assay: kinome scan; format: binding; settings: 10 µM
# T22 construct: purchased DiscoverX (KINOMEscan)
# T22 sequence (Q8WU08 whole entry): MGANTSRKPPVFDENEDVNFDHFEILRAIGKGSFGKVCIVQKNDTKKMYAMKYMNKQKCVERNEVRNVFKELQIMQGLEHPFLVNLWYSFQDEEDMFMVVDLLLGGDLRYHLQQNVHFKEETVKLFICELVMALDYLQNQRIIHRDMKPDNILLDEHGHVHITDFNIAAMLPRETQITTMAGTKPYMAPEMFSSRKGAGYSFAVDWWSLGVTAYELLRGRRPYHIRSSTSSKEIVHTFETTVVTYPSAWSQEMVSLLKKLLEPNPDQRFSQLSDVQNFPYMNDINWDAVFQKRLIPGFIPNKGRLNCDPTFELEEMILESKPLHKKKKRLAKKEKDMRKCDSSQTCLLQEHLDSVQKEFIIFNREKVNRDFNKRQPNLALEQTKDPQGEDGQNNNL
# YES = biological target: T23, YES (Homo sapiens, UniProt P07947); assay: kinome scan; format: binding; settings: 10 µM
# T23 construct: purchased DiscoverX (KINOMEscan)
# PIP4K2C = biological target: T24, PIP4K2C (Homo sapiens, UniProt Q8TBX8); assay: Kd select analysis (DiscoverX); format: binding
# T24 construct: T7 phage fusion (kinase-tagged phage); purchased DiscoverX; host or cells: BL21-derived E. coli (T7 phage)
# T24 sequence (Q8TBX8 whole entry, the tested form may be a part): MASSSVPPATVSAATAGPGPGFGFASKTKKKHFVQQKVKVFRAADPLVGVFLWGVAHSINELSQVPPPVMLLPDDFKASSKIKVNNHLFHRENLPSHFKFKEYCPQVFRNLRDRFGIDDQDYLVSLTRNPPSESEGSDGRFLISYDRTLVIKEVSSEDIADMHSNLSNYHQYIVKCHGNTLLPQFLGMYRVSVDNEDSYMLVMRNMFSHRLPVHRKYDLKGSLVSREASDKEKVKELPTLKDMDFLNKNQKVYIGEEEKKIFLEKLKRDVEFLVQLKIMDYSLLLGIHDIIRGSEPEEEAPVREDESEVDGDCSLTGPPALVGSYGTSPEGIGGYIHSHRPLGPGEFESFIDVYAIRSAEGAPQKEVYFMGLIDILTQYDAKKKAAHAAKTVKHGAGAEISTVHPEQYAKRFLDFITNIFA
# Experimental: Hits are identified by an ultra-sensitive quantitative PCR detecting the specific DNA tag linked to each kinase (Supplementary Figure S2). The drug is used at a concentration of 10 µM and results are expressed as the percentage of signal (kinase PCR detection) with respect to DMSO control conditions. Thirteen hits were identified, with a signal reduction ranging from 0 to 27% (Table 3). Full raw data are presented in Supplementary Table S4. Interactions between 0 and 20% of reduction were considered to be the most significant ones. […] A sub-micromolar affinity (Kd<1 µM) was only seen with two PIKs (PIP4K2C, PI4KB) and GAK (Table 4). Inhibitions curves from these compounds are shown in Supplementary Figure S3.
smiles,measurement,setting,value
"Nc1ccc(N=Nc2ccccc2)c(N)n1 [phenazopyridine, 2,6-diamino-3-(phenylazo)pyridine]",phosphorylation of AKT,AKT,reduced phosphorylation of AKT
same,kinase inhibition,[1],85
same,kinase inhibition,BRAF,96
same,kinase inhibition,BRSK1,62
same,kinase inhibition,CAMK2B,100
same,kinase inhibition,CAMK2D,88
same,kinase inhibition,CDKL2,85
same,kinase inhibition,DCAMKL1,100
same,kinase inhibition,DDR1,96
same,percent of control binding,DYRK2; 10 µM,20
same,remaining binding at 10 µM,DYRK2; read-out: % Of control,20%
same,kinase inhibition,EPHB1,100
same,kinase inhibition,ERK5,95
same,kinase inhibition,IRAK4,100
same,kinase inhibition,MAPKAPK2,86
same,kinase inhibition,MARK1,95
same,kinase inhibition,NEK1,100
same,remaining binding (% of control),PIM1; 10 µM,100
same,remaining binding at 10 µM,PIM1; read-out: Kinome scan (% of control at 10 µM),100%
same,kinase inhibition,PRKCD,100
same,kinase inhibition,PRKR,86
same,kinase inhibition,SIK2,92
same,kinase inhibition,TAOK2,91
same,remaining binding (% of control),[2],100
same,kinase inhibition,YANK1,98
same,kinase inhibition,YES,100
same,Kd,PIP4K2C; Phenazopyridine Kd (nM),540 nM
same,Kd,"PIP4K2C; sub-micromolar affinity, read-out: Kd",< 1000 nM
